# Like-named read-outs stand apart in the source and are kept apart here.
# Test system: narkotisierten Katze
# Conditions: anaesthetised cats (pentobarbital sodium 40 mg/kg i.p.), mean of at least 3 cats
# Procedure: Beispielsweise wurden die Verbindungen • A = 2-(2-Methoxy-4-methylsulfonyl-phenyl)-5-cyano-benzimidazol und • B = 2-(2-Methoxy-4-propargyloxy-phenyl)-5-cyano-benzimidazol auf ihre biologischen Eigenschaften wie folgt untersucht: • Bestimmung der Blutdruckwirkung und der positiv inotropen Wirkung an der narkotisierten Katze
# Die Untersuchungen wurden an Katzen durchgeführt, die mit Pentobarbital-Natrium (40 mg/kg i.p.) narkotisiert waren. Die Tiere atmeten spontan. Der arterielle Blutdruck wurde in der Aorta abdominalis mit einem Statham-Druckwandler (P 23 Dc) gemessen. Für die Erfassung der positiv inotropen Wirkung wurde mit einem Kathetertipmanometer (Millar PC-350 A) der Druck in der linken Herzkammer gemessen. Daraus wurde der Kontraktilitätsparameter d^p/dtmax mittels eines Analogdifferenzierers gewonnen. Die zu untersuchenden Substanzen wurden in eine Vena femoralis injiziert. Als Lösungsmittel diente Polydiol 200. Jede Substanz wurde an mindestens 3 Katzen geprüft.
SMILES,"Zunahme von dp/dtmax in % (0,2 mg/kg i.v.) [%]","Zunahme von dp/dtmax in % (0,6 mg/kg i.v.) [%]","Zunahme von dp/dtmax in % (2,0 mg/kg i.v.) [%]"
"COc1cc(S(C)(=O)=O)ccc1-c1nc2ccc(C#N)cc2[nH]1 [A, 2-(2-Methoxy-4-methylsulfonyl-phenyl)-5-cyano-benzimidazol]",51,96,79
"C#CCOc1ccc(-c2nc3ccc(C#N)cc3[nH]2)c(OC)c1 [B, 2-(2-Methoxy-4-propargyloxy-phenyl)-5-cyano-benzimidazol]",33,48,85
